“Also recorded” adds a separate entry of the source.
Key:
p38 = test: Western blot of proximal ascending aorta: p38 activation (Examples 6-8); assay type: in vivo; conditions: Fbn1^C1039G/+ mice, RDEA119 trial, FIG. 16D
Text: (§1) All mice were cared for under strict compliance with the Animal Care and Use Committee of the Johns Hopkins University School of Medicine. The Smad4 haploinsufficient mice were a generous gift from Dr. Chuxia Deng (NIH/NIDDK, Bethesda). The Fbn1^C1039G/+ line was maintained on a C57BL/6 background, allowing for valid comparisons. In order to further accommodate the potential for temporal- or background-specific variation in genetic or pharmacological manipulation experiments, all comparisons were made between contemporary littermates. Mice were checked daily for death and all mice found dead were immediately necropsied to assess for evidence of aortic dissection. Mice were killed with an inhalation overdose of halothane (Sigma-Aldrich, St. Louis). […] Following PBS infusion, mice analyzed for aortic histology had latex injected under low pressure into the left ventricular apex until it was visible in the descending abdominal aorta. […]
(§2) Protein was extracted using the reagents and protocol from a Total Protein Extraction Kit, in conjunction with a Protein Phosphatase Inhibitor Cocktail (Millipore, MA). […] Equal protein loading of samples was determined by a protein assay (BioRad, CA) and confirmed by probing with antibodies against β-Actin or GAPDH (Sigma, Mo.). […]

[1] = Body weight at the end of the two month RDEA119 trial; assay type: in vivo; conditions: WT or Fbn1^C1039G/+ mice, FIG. 25
Procedure: (§3) Mouse monoclonal TGFβNAb (1d11; R&D Systems, Minneapolis) was reconstituted in PBS and administered via intraperitoneal injection 3 times a week at a dose of 5 mg/kg. Treatment was initiated at 1 month of age and continued for 2 months. IgG (Zymed Laboratories Inc, San Francisco) was reconstituted in PBS, and administered at a dose of 10 mg/kg as a control. SP600125 (Sigma-Aldrich, St. Louis) was reconstituted in 10% DMSO dissolved in PBS, and administered twice daily by intraperitoneal injection, at a dose of 30 mg/kg. Treatment was initiated at 1 month of age and continued for 2 months. 10% DMSO dissolved in PBS was administered as a control. RDEA119 was reconstituted in 10% 2-hydroxypropyl-beta-cyclodextrin (Sigma-Aldrich, St. Louis) dissolved in PBS, and administered twice daily by oral gavage at a dose of 25 mg/kg. Treatment was initiated at 2 months of age and continued for 2 months. 10% 2-hydroxypropyl-beta-cyclodextrin dissolved in PBS was administered as a control. Fasudil was dissolved in drinking water, and administered at a dose of 1 mg/kg body weight per day. Treatment was initiated at 2 months of age and continued for 4 months. Drinking water was administered as a control. […]

Smad2 = test: Western blot of proximal ascending aorta: Smad2 activation (Examples 6-8); assay type: in vivo; conditions: Fbn1^C1039G/+ mice, RDEA119 trial, FIG. 16D
Text: as §1, §2

Fbn1^C1039G/+ mice = test: Aortic root and ascending aortic growth by echocardiography (Examples 6-8); assay type: in vivo
Text: (§4) All mice were cared for under strict compliance with the Animal Care and Use Committee of the Johns Hopkins University School of Medicine. The Smad4 haploinsufficient mice were a generous gift from Dr. Chuxia Deng (NIH/NIDDK, Bethesda). The Fbn1^C1039G/+ line was maintained on a C57BL/6 background, allowing for valid comparisons. In order to further accommodate the potential for temporal- or background-specific variation in genetic or pharmacological manipulation experiments, all comparisons were made between contemporary littermates. Mice were checked daily for death and all mice found dead were immediately necropsied to assess for evidence of aortic dissection. Mice were killed with an inhalation overdose of halothane (Sigma-Aldrich, St. Louis). Mice underwent immediate laparotomy, descending abdominal aortic transection, and PBS (pH 7.4) infusion through the left ventricle to flush out the blood. For Western blot analysis, the proximal ascending aorta (root to right brachiocephalic trunk) was removed, flash frozen in liquid nitrogen and stored at −80° C. Following PBS infusion, mice analyzed for aortic histology had latex injected under low pressure into the left ventricular apex until it was visible in the descending abdominal aorta. The mice were then fixed for 24 hours in 10% buffered formalin, after which the heart and aorta were removed and stored in 70% ethanol.
Mouse monoclonal TGFβNAb (1d11; R&D Systems, Minneapolis) was reconstituted in PBS and administered via intraperitoneal injection 3 times a week at a dose of 5 mg/kg. Treatment was initiated at 1 month of age and continued for 2 months. IgG (Zymed Laboratories Inc, San Francisco) was reconstituted in PBS, and administered at a dose of 10 mg/kg as a control. SP600125 (Sigma-Aldrich, St. Louis) was reconstituted in 10% DMSO dissolved in PBS, and administered twice daily by intraperitoneal injection, at a dose of 30 mg/kg. Treatment was initiated at 1 month of age and continued for 2 months. 10% DMSO dissolved in PBS was administered as a control. RDEA119 was reconstituted in 10% 2-hydroxypropyl-beta-cyclodextrin (Sigma-Aldrich, St. Louis) dissolved in PBS, and administered twice daily by oral gavage at a dose of 25 mg/kg. Treatment was initiated at 2 months of age and continued for 2 months. 10% 2-hydroxypropyl-beta-cyclodextrin dissolved in PBS was administered as a control. Fasudil was dissolved in drinking water, and administered at a dose of 1 mg/kg body weight per day. Treatment was initiated at 2 months of age and continued for 4 months. Drinking water was administered as a control.
Nair hair removal cream was used on all mice the day prior to echocardiography. All echocardiograms were performed on awake, unsedated mice using the Visualsonics Vevo 660 V1.3.6 imaging system and a 30 MHz transducer. The aorta was imaged using a parasternal long axis view. Three separate measurements of the maximal internal systolic dimension at the sinus of Valsalva and proximal ascending aorta were made, and a mean was calculated. All imaging and measurements were performed by a cardiologist who was blinded to genotype and treatment arm. In the TGFβNAb and SP600125 trials, mice were imaged at 1 month (baseline) and 3 months of age, after which they were killed. In the RDEA119 trial, mice were imaged at 2 months (baseline) and 4 months of age, after which they were killed. In the fasudil trial, mice were imaged at 2 months (baseline) and 6 months of age, after which they were killed. Smad4 haploinsufficient mice were imaged at 1 month, and then every 2 months thereafter, until death or sacrifice.

WT mice = test: Aortic root growth by echocardiography, WT mice (Examples 6-8); assay type: in vivo
Text: as §4
(§5) Mouse monoclonal TGFβNAb (1d11; R&D Systems, Minneapolis) was reconstituted in PBS and administered via intraperitoneal injection 3 times a week at a dose of 5 mg/kg. Treatment was initiated at 1 month of age and continued for 2 months. IgG (Zymed Laboratories Inc, San Francisco) was reconstituted in PBS, and administered at a dose of 10 mg/kg as a control. […]
(§6) Nair hair removal cream was used on all mice the day prior to echocardiography. […] Three separate measurements of the maximal internal systolic dimension at the sinus of Valsalva and proximal ascending aorta were made, and a mean was calculated. […]

ERK5 = test: Western blot of proximal ascending aorta: ERK5 activation (Examples 6-8); assay type: in vivo; conditions: Fbn1^C1039G/+ mice, RDEA119 trial, FIG. 16D
Text: as §1, §2

ERK1/2 = test: Western blot of proximal ascending aorta: ERK1/2 activation (Examples 6-8); assay type: in vivo, mice
Text: as §4, §5, §2

JNK1 = test: Western blot of proximal ascending aorta: JNK1 activation (Examples 6-8); assay type: in vivo, mice
Text: as §1, §2

[2] = test system: S4^+/−:Fbn1^C1039G/+ mice; test: Survival (premature death due to aortic dissection); assay type: in vivo
Text: as §4, with “ethanol. […]” for “ethanol.”

[3] = test system: S4^+/−:Fbn1^C1039G/+ mice; test: Aortic root and ascending aortic growth by echocardiography, Smad4 haploinsufficient MFS mice; assay type: in vivo
Text: as §4
as §3, with “months.” for “months. Drinking water was administered as a control.”
as §6

[4] = test system: abdominal aortic aneurysm induced by the periaortic application of calcium chloride; conditions: prior work (Yoshimura et al. 2005), in association with reduced JNK1 activation; cited from earlier work
[5] = 25 mg/kg twice daily oral gavage, 2 to 4 months of age, FIG. 16C
[6] = RDEA119 trial, 2 months of treatment
[7] = Fbn1^C1039G/+ mice, RDEA119 trial, FIG. 16D
[8] = 30 mg/kg twice daily i.p., 1 to 3 months of age, FIG. 23A
[9] = WT and Fbn1^C1039G/+ mice after two weeks of therapy, FIG. 24

COc1cc(F)c(F)c(Nc2ccc(I)cc2F)c1NS(=O)(=O)C1(C[C@H](O)CO)CC1 [RDEA119]
p38 activation (p38): unchanged | Weight (somatic growth) at the end of the two month trial [1]: does not significantly affect somatic growth; also recorded: did not significantly affect the weight | Smad2 activation (Smad2): unchanged | Final absolute aortic root diameter (Fbn1^C1039G/+ mice; [5]): 1.94+/−0.07 mm | Aortic root growth (Fbn1^C1039G/+ mice; [6]): selectively reduced growth; also recorded: significantly less than that of placebo-treated | Final absolute aortic root diameter (WT mice; [5]): 1.64+/−0.09 mm | Aortic root growth (WT mice; [6]): no significant effect | ERK5 activation (ERK5): unchanged | ERK1/2 activation (ERK1/2; [7]): selective reduction in pERK1/2 signaling; also recorded: significant reduction in ERK1/2 activation | JNK1 activation (JNK1; [7]): unchanged

O=C1c2ccccc2-c2n[nH]c3cccc1c23 [SP600125]
Mice still alive at 3 months of age ([2]; 50% of placebo-treated had died): all | Premature death due to aortic dissection ([2]; FIG. 23B): prevention of premature death; also recorded: prevented the premature death | Final absolute aortic root diameter (Fbn1^C1039G/+ mice; [8]): 1.97+/−0.16 mm | Final absolute ascending aortic diameter (Fbn1^C1039G/+ mice; [8]): 1.38+/−0.06 mm | Aortic root growth (Fbn1^C1039G/+ mice; SP600125 trial, versus placebo): decreased aortic root growth; also recorded: ameliorated their aortic root growth | Final absolute aortic root diameter [3, 8]: 2.09+/−0.16 mm | Final absolute ascending aortic diameter [3, 8]: 1.47+/−0.14 mm | Aortic root growth ([3]; SP600125 trial, versus placebo): decreased aortic root growth; also recorded: significant reduction | Ascending aortic growth ([3]; SP600125 trial, versus placebo): reduced ascending aortic growth; also recorded: significant reduction | ERK1/2 activation (ERK1/2; [9]): no change in ERK1/2 activation; also recorded: remained unaffected | JNK1 activation (JNK1; [9]): significant reduction in JNK1 activation; also recorded: reduction of JNK1 activation to levels below baseline | Abdominal aortic aneurysm [4]: ameliorate abdominal aortic aneurysm

Reference: US20140148498A1, “METHODS AND COMPOSITIONS FOR THE TREATMENT OF MARFAN SYNDROME AND ASSOCIATED DISORDERS” (THE JOHNS HOPKINS UNIVERSITY, priority 2011, published 2014)
